The results in this text go back to patent US7494984B2, “Substituted imidazo[1,2-a]pyrimidines as HIV viral DNA integrase inhibitors” (priority 2005, dated 2009).

Each structure is given as a SMILES string.

The target of one series is T1, HIV-integrase (Human immunodeficiency virus type 1 group M subtype B, UniProt P12497).
T1 construct: Recombinant integrase (0.26 ng) was incubated with the beads
Put plainly: HIV-Integrase Inhibition Activity (SPA strand transfer assay). The format is biochemical. The conditions noted are these: recombinant integrase, biotin labeled substrate DNA on SPA beads, P33 labeled target DNA; read-out: Activity (IC50 class, HIV-integrase inhibition). As for the experimental part:
HIV-Integrase Inhibition Activity. To evaluate in-vitro activity against HIV-integrase, 5 pmole of biotin labeled substrate DNA was bound to 100 μg of Streptavidin coated PVT SPA beads (Amersham Pharmacia Biotech). Recombinant integrase (0.26 ng) was incubated with the beads for 90 min at 37° C. Unbound enzyme was removed by washing the complex followed by addition of inhibitors and 0.1 fmol of P33 labeled target DNA. The reaction was stopped by adding EDTA to a final concentration of 10 mM. Samples were counted in TopCountNXT (Packard) and the CPM was used as a measure of integration. The reaction condition was as described in A. Engelman and R. Craigie, J. Virol. 69, 5908-5911 (1995). The sequences of substrate and target DNA were described in Nucleic Acid Research 22,1121-1122 (1994). Activity equal to A refers to a compound having IC50=0.005 to 0.010 μM while B and C denote compounds having IC50=0.010 to 0.030 μM and IC50>0.030 μM respectively.

In the case of `CCCCN1CCn2c1nc(C(=O)NCc1ccc(F)cc1C(=O)NC)c(O)c2=O` [Example 13, N-(4-Fluoro-2-(methylcarbamoyl)benzyl)-1-butyl-6-hydroxy-5-oxo-1,2,3,5-tetrahydroimidazo[1,2-a]pyrimidine-7-carboxamide], the melting point (in general, the temperature, or range, at which the solid turns liquid) lay in the range of 175 to 177 °C. For the same compound, the IC50 (as a rule, the concentration needed to halve the response being measured) on HIV-integrase is 10 to 30 nM.

In the case of `CNC(=O)c1cc(F)ccc1CNC(=O)c1nc2n(c(=O)c1O)CCN2C(C)C` [Example 6, N-(4-Fluoro-2-(methylcarbamoyl)benzyl)-6-hydroxy-1-isopropyl-5-oxo-1,2,3,5-tetrahydroimidazo[1,2-a]pyrimidine-7-carboxamide], the melting point was 205 °C (dec.). The IC50 at HIV-integrase is 10 to 30 nM.

For the compound `CNC(=O)c1cc(F)ccc1CNC(=O)c1nc2n(c(=O)c1O)CCN2Cc1ccccc1` [Example 18, N-(4-Fluoro-2-(methylcarbamoyl)benzyl)-1-benzyl-6-hydroxy-5-oxo-1,2,3,5-tetrahydroimidazo[1,2-a]pyrimidine-7-carboxamide], the melting point was 206 °C (dec.). Besides, the IC50 at HIV-integrase is 10 to 30 nM.

For `Cc1ncnn1-c1cc(F)ccc1CNC(=O)c1nc2n(c(=O)c1O)CCN2C(C)C` [Example 10, N-(4-Fluoro-2-(5-methyl-1H-1,2,4-triazol-1-yl)benzyl)-6-hydroxy-1-isopropyl-5-oxo-1,2,3,5-tetrahydroimidazo[1,2-a]pyrimidine-7-carboxamide], the melting point is 212 °C. Further, the IC50 at HIV-integrase was over 30 nM.

Compound `CCCCN1CCn2c1nc(C(=O)NCc1ccc(F)cc1-n1cnc(C)n1)c(O)c2=O` [Example 15, N-(4-Fluoro-2-(3-methyl-1H-1,2,4-triazol-1-yl)benzyl)-1-butyl-6-hydroxy-5-oxo-1,2,3,5-tetrahydroimidazo[1,2-a]pyrimidine-7-carboxamide] registered a melting point of 214 °C. In addition, on HIV-integrase, the IC50 is 5 to 10 nM.

`O=C(NCc1ccc(F)cc1-n1cncn1)c1nc2n(c(=O)c1O)CCN2CCO` [Example 31, N-(4-Fluoro-2-(1H-1,2,4-triazol-1-yl)benzyl)-6-hydroxy-(2-hydroxyethyl)-5-oxo-1,2,3,5-tetrahydroimidazo[1,2-a]pyrimidine-7-carboxamide]: the melting point was 220 to 222 °C. The IC50 at HIV-integrase lay in the range of 10 to 30 nM.

`O=C(NCc1ccc(F)cc1)c1nc2n(c(=O)c1O)CCN2Cc1ccccc1` [Example 16, N-(4-Fluorobenzyl)-1-benzyl-6-hydroxy-5-oxo-1,2,3,5-tetrahydroimidazo[1,2-a]pyrimidine-7-carboxamide]: the melting point is 225 °C. Besides, the IC50 on HIV-integrase is over 30 nM.
